This assay deals with T1, enzymes in the synthesis of aldosterone (Rattus norvegicus, UniProt P30099).
T1 construct: From these animals, adrenal capsule/glomerulosa homogenates were prepared; from tissue; host or cells: adrenal capsule/glomerulosa homogenate of sodium-deficient young male Sprague-Dawley rats
As to the kind of experiment: Inhibition of aldosterone formation from [3H]-DOC in rat adrenal capsule/glomerulosa homogenates. In kind it is biochemical, Sprague-Dawley rats. The following applies: pH 7.4, 25° C.; for IC50: 40 minute preincubation data, 10-minute assay, 1 μM [3H]-DOC, read-out: IC50 (half-maximal inhibition of aldosterone formation); for t50 (t1/2 for enzyme inactivation at infinite inhibitor concentration) / Ki: linear regression of t1/2 vs. 1/[I], Kitz-Wilson plots; for Ki: read-out: Ki for time-dependent inhibition. Here is the method:
Young male Sprague-Dawley rats were maintained on a sodium-deficient diet for about two weeks prior to use. From these animals, adrenal capsule/glomerulosa homogenates were prepared (6 mg/ml) in pH 7.4 assay buffer [MgCl2 8.5 mM, CaCl2 2.7 mM, KCl 3.13 mM, NaCl 7.591 mM, TRIS 50 mM and 0.1% triethylamine] and centrifuged 500xg for 10 minutes.
Assays were conducted in 35 ml glass tubes maintained at 25° C. in a Dubnoff shaker with 95% O2 /5% CO2. The tubes contained the following material: 100 μl of an NADPH^+ generating system, 300 μl of adrenal capsular/glomerulosa cytosol, and 50 μl of test compound or buffer (control). After initial preincubation intervals of 20 minutes, the 10-minute assay was started by the addition of 50 μl of tritium-labelled substrate, i.e., 1 μM [^3 H]-DOC. Reactions were quenched by the addition of 5 ml of ethyl acetate and non-radiolabelled steroids were also added. The samples were extracted twice with 5 ml of ethyl acetate and the solvent evaporated under nitrogen at 30°-40° C.
Residues were redissolved in methanol:water (40:60) with 0.1% triethylamine and high performance liquid chromatography was used to separate products on a C18 reverse phase (5μ ODS-Hypersil) column (4.6×250 mm, Shannon) with a 1 ml/min flow rate using an MeOH:H20 gradient (solvent A 10/90:solvent B 90/10).
Substrate remaining and products formed were monitored by UV absorbance at 246 nm and the amount of steroid compound present was quantified by [^3 H] radioactivity. The concentration of compound to produce half-maximal inhibition (IC50) of aldosterone formation from the 40 minute preincubation data was graphically estimated from a linear-log plot of percent inhibition vs. log of the compound concentration. The Ki for time-dependent inhibition and the t1/2 for enzyme inactivation at infinite inhibitor concentration (t50) was determined by the linear regression analyses of t1/2 vs. 1/[I] data of Kitz-Wilson plots. Using this procedure, the following results were observed: […]

The term IC50 denotes the concentration needed to halve the response being measured.

Take `C[C@]12CC[C@H]3[C@@H](CCC4=CC(=O)CC[C@@]43C)[C@@H]1CC[C@@H]2NC1CC1` [17β-(Cyclopropylamino)androst-4-en-3-one]: the IC50 stood at 180 nM.
Regarding `C[C@]12CC[C@H]3[C@@H](CC=C4C[C@@H](O)CC[C@@]43C)[C@@H]1CC[C@@H]2NC1CC1` [17β-(Cyclopropylamino)androst-5-en-3β-ol], the IC50 was 1100 nM, the “t50 (t1/2 for enzyme inactivation at infinite inhibitor concentration)” value is listed as 9.7 min and the Ki was 4850 nM.
For `CN(C1CC1)[C@H]1CC[C@H]2[C@@H]3CC=C4C[C@@H](O)CC[C@]4(C)[C@H]3CC[C@]12C` [17β-[N-Methyl(cyclopropylamino)]-androst-5-en-3β-ol] the same measures were 350 nM, 9.0 min and 350 nM.
The corresponding values for `CN(C1CC1)[C@H]1CC[C@H]2[C@@H]3CCC4=CC(=O)CC[C@]4(C)[C@H]3CC[C@]12C` [17β-[N-Methyl(cyclopropylamino)]androst-4-en-3-one] are 130 nM, 15.4 min and 140 nM.

Source of the values: patent US4954488A, “Method of treating hyperaldosteronism using 17β-cyclopropylaminoandrostene derivatives” (Merrell Dow Pharmaceuticals Inc., priority 1989, dated 1990).
